This is an account of results in patent US20200352931A1, “OXALAMIDES AS MODULATORS OF INDOLEAMINE 2,3-DIOXYGENASE” (PHENEX DISCOVERY VERWALTUNGS-GMBH, priority 2017, published 2020).

In this assay the target is T1, Indoleamine 2,3-Dioxygenase (IDO1) in SKOV-3 cells (Homo sapiens, UniProt P14902).
T1 construct: endogenous in cells; host or cells: SKOV-3 (ATCC HTB-77), stimulated with 50 ng/ml interferon gamma
T1 sequence (P14902 whole entry): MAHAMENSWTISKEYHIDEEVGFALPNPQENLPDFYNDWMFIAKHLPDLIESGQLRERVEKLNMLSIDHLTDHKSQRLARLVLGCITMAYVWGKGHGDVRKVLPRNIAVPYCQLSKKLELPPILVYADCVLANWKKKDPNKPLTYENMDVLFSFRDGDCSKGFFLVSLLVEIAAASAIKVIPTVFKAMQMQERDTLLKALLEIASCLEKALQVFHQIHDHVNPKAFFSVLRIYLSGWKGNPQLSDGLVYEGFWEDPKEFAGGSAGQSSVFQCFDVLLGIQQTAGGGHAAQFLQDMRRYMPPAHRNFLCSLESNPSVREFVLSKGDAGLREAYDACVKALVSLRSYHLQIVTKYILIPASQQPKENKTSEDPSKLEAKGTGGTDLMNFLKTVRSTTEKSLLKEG
Briefly: SKOV-3 cellular indoleamine 2,3-dioxygenase assay. Conditions: 50 ng/ml Interferon gamma, 100 μM L-Tryptophan, 24 hours, N-Formylkynurenin fluorescence, read-out: cell based activity (IC50). The method, then: SKOV-3 Cellular Indoleamine 2,3-Dioxygenase Assay
SKOV-3 cells were obtained from the American Type Culture Collection (ATCC® HTB-77™) and maintained in McCoy's medium (Pan Biotech) supplemented with 10% fetal bovine serum and 1% Penicilin/Streptomycin. Cells were kept at 37° C. in a humidified incubator with 5% CO2. For assay preparation, cells were seeded at a density of 2*10^5/m into black clear bottom 96 well plates in 100 μl medium/well supplemented with 50 ng/ml Interferon gamma (eBioscience, Thermo Fisher Scientific). After cells fully adhered to the plate, dilution series of compounds were added in medium containing additional L-Tryptophan to a final L-Tryptophan concentration of 100 μM. The cells were incubated for 24 hours. Detection of produced N-Formylkynurenin was performed by addition of 3-Methylpiperidine to a final concentration of 200 mM. The plates were sealed and heated to 65° C. for 20 minutes in a water bath. After cooling the fluorescence of each well was recorded with a Victor™ X4 (PerkinElmer) plate reader at an emission wavelength of 535 nm and excitation at 405 nm (Tomek et al.; Anal Bioanal Chem (2013) 405:2515-2524., Tomek et al.; Biochim Biophys Acta. 2015 September; 1850(9):1772-80).
For orientation: IC50 means the point on the concentration scale where inhibition reaches its midpoint. As for `NC(=O)c1ccc(NC(=O)C(=O)N2CCC(c3ccnc4ccc(F)cc34)CC2)cc1` [5/9], the IC50 is more than 1 µM.

For the compound `CS(=O)(=O)c1ccc(NC(=O)C(=O)N2CCC(c3ccnc4ccc(F)cc34)CC2)cc1` [5/10], the IC50 was more than 1 µM.

On to `O=C(Nc1ccc(C(F)(F)F)cn1)C(=O)N1CCC(c2ccccc2Cc2ccccc2)CC1` [6/1], for which the IC50 was more than 1 µM.

As for `O=C(Nc1ccc(C(F)(F)F)cn1)C(=O)N1CCC(c2ccncc2-c2ccccc2)CC1` [6/2], the IC50 was more than 1 µM.

Take `O=C(Nc1ccc(C(F)(F)F)cc1)C(=O)N1CCC(c2ccnc3ccc(F)cc23)CC1` [7/1]: the IC50 is less than 0.1 µM.

Take `O=C(Nc1csc(Cl)c1)C(=O)N1CCC(c2ccnc3ccc(F)cc23)CC1` [7/2]: the IC50 is less than 0.1 µM.

Consider `O=C(N[C@@H]1CCc2ccccc21)C(=O)N1CCC(c2ccnc3ccc(F)cc23)CC1` [8/1], for which the IC50 is more than 1 µM.

On to `O=C(N[C@H]1CCc2ccccc21)C(=O)N1CCC(c2ccnc3ccc(F)cc23)CC1` [8/2], for which the half-maximal inhibitory concentration (IC50) was more than 1 µM.

For the compound `O=C(NC1CCC(F)(F)CC1)C(=O)N1CCC(c2ccnc3ccc(F)cc23)CC1` [8/3], the IC50 is more than 1 µM.

In the case of `O=C(NCC1CC1)C(=O)N1CCC(c2ccnc3ccc(F)cc23)CC1` [8/4], the IC50 is more than 1 µM.

As for `O=C(NC1CCC2(CC1)CC2)C(=O)N1CCC(c2ccnc3ccc(F)cc23)CC1` [8/5], the IC50 was more than 1 µM.

`O=C(NC1CCC(C(F)(F)F)CC1)C(=O)N1CCC(c2ccnc3ccc(F)cc23)CC1` (stereo not shown) [8/6]: the IC50 is more than 1 µM.

In the case of `O=C(Nc1ccc(Cl)cn1)C(=O)N1CCC2(CC1)OCc1ccccc12` [100/1], the IC50 was in the range of 0.1 to 1 µM.

For the compound `O=C(Nc1ccc(Cl)cn1)C(=O)N1CCC2(CC1)COc1ccccc12` [100/2], the IC50 is 0.1 to 1 µM.

Regarding `CN1C(=O)C2(CCN(C(=O)C(=O)Nc3ccc(Cl)cn3)CC2)c2ccccc21` [100/4], the IC50 was more than 1 µM.

For `O=C(Nc1ccc(Cl)cn1)C(=O)N1CCC2(CC1)OCc1ccncc12` [100/5], the IC50 is more than 1 µM.

For `O=C(Nc1ccc(Cl)cn1)C(=O)N1CCC2(CC1)NC(=O)c1ccccc12` [100/6], the IC50 is more than 1 µM.

Consider `CN1C(=O)c2ccccc2C12CCN(C(=O)C(=O)Nc1ccc(Cl)cn1)CC2` [100/7], for which the IC50 was more than 1 µM.

With `O=C(Nc1ccc(Cl)cn1)C(=O)N1CCC2(CC1)OCc1cc(Cl)ccc12` [100/8], the IC50 is 0.1 to 1 µM.

Turning to `O=C(Nc1ccc(Cl)cc1)C(=O)N1CCC2(CC1)OCc1cc(Cl)ccc12` [100/9], the IC50 was less than 0.1 µM.

Turning to `O=C(Nc1ccc(Cl)cn1)C(=O)N1CCC2(CC1)OCc1cc(C(F)(F)F)ccc12` [100/11], the IC50 is less than 0.1 µM.

For `O=C(Nc1ccc(Cl)cc1)C(=O)N1CCC2(CC1)OCc1cc(C(F)(F)F)ccc12` [100/12], the IC50 was less than 0.1 µM.

On to `O=C(Nc1ccc(Cl)cc1)C(=O)N1CCC2(CC1)OCc1cc(C(F)(F)F)c(F)cc12` [100/13], for which the IC50 is less than 0.1 µM.

As for `N#Cc1ccc2c(c1)COC21CCN(C(=O)C(=O)Nc2ccc(Cl)cc2)CC1` [100/14], the IC50 was in the range of 0.1 to 1 µM.

Turning to `O=C(Nc1ccc(Cl)cn1)C(=O)N1CCC2(CC1)OCc1ccc(Cl)cc12` [100/15], the IC50 is more than 1 µM.

Consider `O=C(Nc1ccc(Cl)cn1)C(=O)N1CCC(c2ccnc3ccc(F)cc23)CC1` [Example 2, N-(5-Chloropyridin-2-yl)-2-(4-(6-fluoroquinolin-4-yl)piperidin-1-yl)-2-oxoacetamide], for which the IC50 is less than 0.1 µM.

As for `O=C(Nc1ccc(Cl)cn1)C(=O)N1CCC(c2ccnc3ccccc23)CC1` [Example 3, N-(5-Chloropyridin-2-yl)-2-oxo-2-(4-(quinolin-4-yl)piperidin-1-yl)acetamide], the IC50 was less than 0.1 µM.

For the compound `C[C@H]1CC[C@H](NC(=O)C(=O)N2CCC(c3ccnc4ccccc34)CC2)CC1` [Example 4, N-((1r,4r)-4-Methylcyclohexyl)-2-oxo-2-(4-(quinolin-4-yl)piperidin-1-yl)acetamide], the IC50 was in the range of 0.1 to 1 µM.
